Laboratory results taken from ChEMBL document CHEMBL1201862, “PubChem BioAssay data set” (2004).
Calls of active or inactive are those of the source.

What was measured:
[1] = tested on: Saccharomyces cerevisiae; experiment: NALP1 inhibitor project selectivity study, Caspase-1/ASC signal blockade IC50 in S. cerevisiae (AID 488863); type: functional, organism-based
[2] = molecular target: NACHT, LRR and PYD domains-containing protein 1 (Homo sapiens, UniProt Q9C000); experiment: NALP1 inhibitors in yeast, dose response, luminescent (AID 488860); type: functional
[3] = molecular target: T1, E3 ubiquitin-protein ligase XIAP (Homo sapiens, UniProt P98170); experiment: Counter Screen using XIAP-Bir3 for Chemical Antagonists of Bir1/2 domains of IAP-family anti-apoptotic proteins. [Related pubchem assays (depositor defined):AID1018, AID1449, AID1514, AID1638, AID1749, AID1750, AID488957, AID488963]
[4] = molecular target: T1, E3 ubiquitin-protein ligase XIAP; experiment: XIAP antagonists, biochemical, IAP family, fluorescence polarization (AID 1018); type: functional
[5] = tested on: Salmon testes DNA; experiment: DNA intercalators displacing acridine orange, dose response, artefact control for KSHV LANA DNA-binding inhibitor project, biochemical, fluorescence polarization, cherry-picked samples, set 2 (AID 504727); design: species or system Salmonidae
[6] = molecular target: ORF 73 (Human herpesvirus 8, UniProt O40947); experiment: inhibitors of C-LANA binding to LBS DNA, dose response, biochemical, fluorescence polarization, cherry-picked samples (AID 504725); design: species or system Human gammaherpesvirus 8;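 also: fluorescence polarization of a labeled DNA duplex reporting LANA DNA binding; potency is for inhibitors that block LANA binding to the DNA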
[7] = molecular target: G-protein coupled receptor 55 (Homo sapiens, UniProt Q9Y2T6); experiment: GPR55 antagonists blocking LPI-driven arrestin recruitment, primary screen, imaging, U2OS, beta-arrestin-GFP, LPI agonist (AID 2013); type: functional;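 also: antagonist potency measured as reduced agonist-driven arrestin aggregation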
[8] = cytotoxicity toward NIH3T3 fibroblasts, dose response, counter-screen, cell-based, ATP luminescence, mouse fibroblasts (AID 2010); type: functional;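 also: cells exposed to compound for about 90 hours before reading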
[9] = molecular target: Trypsin (Sus scrofa, UniProt P00761); experiment: porcine trypsin inhibitors, dose response, selectivity assay for Rce1 protease inhibitor project, biochemical, quenched peptide fluorescence, cherry-pick (AID 488789)
[10] = molecular target: CAAX prenyl protease 2 (Saccharomyces cerevisiae S288c, UniProt Q03530); type: biochemical
[11] = molecular target: Alkaline phosphatase, placental type (Homo sapiens, UniProt P05187); experiment: PLAP enzyme inhibitors, confirmation, biochemical, luminescence (AID 1512); type: functional
[12] = molecular target: T2, Alkaline phosphatase, tissue-nonspecific isozyme (Homo sapiens, UniProt P05186); experiment: human TNAP enzyme inhibitors, SAR follow-up, biochemical, luminescent, dose response (AID 1056)
T2 sequence (P05186 whole entry): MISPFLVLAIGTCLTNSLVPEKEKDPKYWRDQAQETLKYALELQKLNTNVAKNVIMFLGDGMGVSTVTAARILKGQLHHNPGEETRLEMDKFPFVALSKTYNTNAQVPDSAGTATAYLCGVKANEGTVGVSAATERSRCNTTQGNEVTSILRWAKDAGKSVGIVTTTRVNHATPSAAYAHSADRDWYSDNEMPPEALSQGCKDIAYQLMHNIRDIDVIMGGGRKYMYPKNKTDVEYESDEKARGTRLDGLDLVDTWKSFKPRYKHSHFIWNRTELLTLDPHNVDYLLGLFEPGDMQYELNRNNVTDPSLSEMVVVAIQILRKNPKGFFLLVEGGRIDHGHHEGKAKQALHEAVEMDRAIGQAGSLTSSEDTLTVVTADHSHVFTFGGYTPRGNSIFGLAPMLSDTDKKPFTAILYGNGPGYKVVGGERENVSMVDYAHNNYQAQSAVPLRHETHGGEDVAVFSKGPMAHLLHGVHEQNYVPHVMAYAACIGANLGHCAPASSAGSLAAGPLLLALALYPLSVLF

[13] = molecular target: T3, Voltage-gated N-type calcium channel alpha-1B subunit/Amyloid beta A4 precursor protein-binding family A member 1 (Homo sapiens, UniProt Q00975+Q02410); type: protein assay
[14] = molecular target: T3, Voltage-gated N-type calcium channel alpha-1B subunit/Amyloid beta A4 precursor protein-binding family A member 1; type: protein assay; remark: listed apart in the source
[15] = tested on: Streptococcus sp. 'group A'; experiment: growth inhibition of control SK(-) GAS strain, dose response, counter-screen for streptokinase expression inhibitor project, luminescence, kanamycin, BacTiterGlo, confirmation (AID 1900); type: functional, organism-based
[16] = inhibitors of intracellular T. cruzi replication, confirmation, NIH3T3 host cells, beta-gal luminescence (AID 2044); type: functional, cell-based;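 also: intracellular parasites grown in NIH/3T3 mouse fibroblasts as host cells; luminescent beta-galactosidase reporter signal from transgenic T. cruzi replicating inside host cells; inhibitors lower the luminescence signal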
[17] = tested on: Streptococcus; experiment: Group A Streptococcus viability loss, dose response, counter-screen for streptokinase expression inhibitor project, luminescence, BacTiterGlo (AID 1915); type: functional, organism-based;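 also: potency for reduction of bacterial viability or growth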
[18] = molecular target: Beta-galactosidase (Escherichia coli, UniProt Q8VNN2); experiment: beta-galactosidase enzyme inhibitors and activators, dose response, artefact control for CCR6 antagonist project, biochemical, E. coli enzyme, set 3 (AID 504712); type: functional
[19] = tested on: H9c2; experiment: cells; type: functional, cell-based; details: Rattus norvegicus, H9c2, Myocardium;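 also: confirmatory concentration-response retest of ultra-high-throughput screening hits for modulation of myocardial damage; cell death induced by hydrogen peroxide oxidative stress; compound pretreatment for 60 min then peroxide exposure for 2 h; potency is for protecting the cells against peroxide damage rather than for killing them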
[20] = Luminescence Cell-Based Dose Response HTS to Identify Inhibitors of Luciferase Translation or Activity in H4-C Neuroglioblastoma Cells. [Related pubchem assays: 1813 (Primary HTS), 1827 (Project Summary)]; type: functional
[21] = Luminescence Cell-Based Dose Response HTS to Identify Activators of Luciferase Translation or Activity in H4-C Neuroglioblastoma Cells. [Related pubchem assays: 1829 (Project Summary), 1814 (Primary HTS)]; type: functional
[22] = inhibitors of firefly luciferase expression or activity, dose response, H4 neuroglioma cells, luminescence (AID 1990); type: functional, cell-based
[23] = Luminescence Cell-Based Dose Retest to Confirm Activators of 5'UTR Stem-Loop Driven Alpha-Synuclein mRNA Translation in H4 Neuroglioblastoma Cells. [Related pubchem assays (depositor defined):AID1813, AID1829]; type: functional
[24] = Luminescence Cell-Based Dose Response HTS to Identify Activators of 5'UTR Stem-Loop Driven Prion Protein mRNA Translation in H4-C Neuroglioblastoma Cells. [Related pubchem assays: 1829 (Project Summary), 1814 (Primary HTS)]; type: functional
[25] = Luminescence Cell-Based Dose HTS Response to Identify Inhibitors of 5'UTR Stem-Loop Driven Prion Protein mRNA Translation in H4-C Neuroglioblastoma Cells. [Related pubchem assays (depositor defined):AID1814, AID1827]; type: functional
[26] = tested on: BJ; experiment: cytotoxicity toward BJ-TERT fibroblasts, dose response, cell-based, RAS-independent, luminescence (AID 1933); type: functional; details: Homo sapiens
[27] = Luminescence Cell-Based Dose Response HTS to Identify Inhibitors of 5'UTR Stem-Loop Driven Prion Protein mRNA Translation in H4 Neuroglioblastoma Cells. [Related pubchem assays: 1827 (Project Summary), 1813 (Primary HTS)]; type: functional
[28] = inhibitors of SNCA 5'UTR-driven reporter translation, confirmation, H4 neuroglioma cells, luminescence (AID 1988); type: functional, cell-based
[29] = tested on: BJ; experiment: cells; type: functional, cell-based; details: Homo sapiens
[30] = Luminescence Cell-Based Dose Confirmation HTS to Identify Inhibitors of 5'UTR Stem-Loop Driven Alpha-Synuclein mRNA Translation in H4 Neuroglioblastoma Cells. [Related pubchem assays: 1827 (Project Summary), 1813 (Primary HTS)]; type: functional
[31] = tested on: BJ; experiment: cytotoxicity toward BJ-TERT-LT-ST fibroblasts, dose response, cell-based, RAS-independent, luminescence (AID 1935); type: functional; details: Homo sapiens;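 also: BJ fibroblasts immortalized with TERT plus LT and ST oncogenes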
[32] = cytotoxicity toward DRD oncogenic fibroblasts, dose response, cell-based, non-viral oncogenic, luminescence (AID 1934); type: functional; details: Homo sapiens
[33] = tested on: BJ; experiment: cytotoxicity toward Ras-transformed BJeLR fibroblasts, dose response, cell-based, alamar blue fluorescence, cherrypicked samples (AID 2631); type: functional; details: Homo sapiens;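 also: confirmatory dose-response assay in RAS-dependent BJ fibroblasts engineered with TERT, LT and ST, with cytotoxicity read by fluorescence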
[34] = tested on: T-cell; experiment: inhibitors of CD8+ T cell–vesicle binding, dose response, mouse 2C CD8+ T cells, flow cytometry (AID 485284); type: functional
[35] = growth suppression of PTEN-null colon cells, dose response, cell-based, HCT116 PTEN knockout (AID 1047); type: functional;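 also: HCT116 colon tumor cells with PTEN knocked out; cells exposed to compound for 60 hours before readout; potency for loss of cell viability measured by luminescence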
[36] = growth suppression of beta-catenin-knockout colon cells, dose response, cell-based, HCT116, human colon tumor (AID 1045); type: functional;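 also: HCT116 colon tumor cells with beta catenin knocked out; cells exposed to compound for 60 hours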
[37] = molecular target: T4, Microphthalmia-associated transcription factor (Homo sapiens, UniProt O75030); experiment: TRPM1 promoter luciferase signal decrease, dose response, MITF inhibitor project, cell-based, SK-MEL-5, cherry-picked, set 3 (AID 493073); type: functional
T4 sequence (O75030 whole entry): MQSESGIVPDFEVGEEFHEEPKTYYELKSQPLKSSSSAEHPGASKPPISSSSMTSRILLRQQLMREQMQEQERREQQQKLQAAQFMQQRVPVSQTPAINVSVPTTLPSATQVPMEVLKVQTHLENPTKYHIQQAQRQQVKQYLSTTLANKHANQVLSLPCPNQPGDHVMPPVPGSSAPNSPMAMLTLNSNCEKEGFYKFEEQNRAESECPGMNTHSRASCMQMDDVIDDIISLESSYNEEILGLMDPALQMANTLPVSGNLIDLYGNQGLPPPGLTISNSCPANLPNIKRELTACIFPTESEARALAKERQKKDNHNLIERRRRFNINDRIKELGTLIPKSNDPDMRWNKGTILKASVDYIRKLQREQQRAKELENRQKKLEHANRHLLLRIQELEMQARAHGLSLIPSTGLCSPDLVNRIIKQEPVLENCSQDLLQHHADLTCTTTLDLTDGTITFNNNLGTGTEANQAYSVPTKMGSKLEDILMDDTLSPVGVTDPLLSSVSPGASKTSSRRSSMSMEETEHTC

T1 sequence (P98170 whole entry): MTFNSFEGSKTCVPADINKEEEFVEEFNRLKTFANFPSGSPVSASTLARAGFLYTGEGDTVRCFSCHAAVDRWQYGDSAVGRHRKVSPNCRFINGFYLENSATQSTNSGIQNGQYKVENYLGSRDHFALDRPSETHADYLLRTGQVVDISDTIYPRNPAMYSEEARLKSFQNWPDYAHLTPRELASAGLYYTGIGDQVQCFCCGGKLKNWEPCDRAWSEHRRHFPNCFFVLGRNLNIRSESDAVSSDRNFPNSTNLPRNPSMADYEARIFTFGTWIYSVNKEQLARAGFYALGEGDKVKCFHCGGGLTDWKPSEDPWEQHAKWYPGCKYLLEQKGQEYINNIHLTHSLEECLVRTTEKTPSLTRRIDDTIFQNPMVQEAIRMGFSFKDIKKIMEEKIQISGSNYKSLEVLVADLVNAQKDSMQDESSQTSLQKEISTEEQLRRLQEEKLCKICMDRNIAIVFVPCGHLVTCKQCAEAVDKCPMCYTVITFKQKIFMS
Sequence of Alkaline phosphatase, placental type (P05187 whole entry): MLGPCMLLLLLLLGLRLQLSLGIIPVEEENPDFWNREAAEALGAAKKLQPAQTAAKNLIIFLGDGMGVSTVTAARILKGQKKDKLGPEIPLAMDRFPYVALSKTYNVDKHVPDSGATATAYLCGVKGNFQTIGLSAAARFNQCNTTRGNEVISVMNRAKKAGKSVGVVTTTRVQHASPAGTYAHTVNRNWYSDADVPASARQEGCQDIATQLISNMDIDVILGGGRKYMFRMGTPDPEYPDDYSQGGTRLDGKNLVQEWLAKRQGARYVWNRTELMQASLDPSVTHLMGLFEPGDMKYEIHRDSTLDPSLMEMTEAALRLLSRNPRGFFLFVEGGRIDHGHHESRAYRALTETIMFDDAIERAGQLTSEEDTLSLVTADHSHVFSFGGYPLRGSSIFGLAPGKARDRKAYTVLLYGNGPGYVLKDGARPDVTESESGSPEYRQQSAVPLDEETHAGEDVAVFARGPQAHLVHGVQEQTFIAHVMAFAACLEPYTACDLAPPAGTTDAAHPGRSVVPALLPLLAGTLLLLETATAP
Sequence of NACHT, LRR and PYD domains-containing protein 1 (Q9C000 1-1212 limits assumed): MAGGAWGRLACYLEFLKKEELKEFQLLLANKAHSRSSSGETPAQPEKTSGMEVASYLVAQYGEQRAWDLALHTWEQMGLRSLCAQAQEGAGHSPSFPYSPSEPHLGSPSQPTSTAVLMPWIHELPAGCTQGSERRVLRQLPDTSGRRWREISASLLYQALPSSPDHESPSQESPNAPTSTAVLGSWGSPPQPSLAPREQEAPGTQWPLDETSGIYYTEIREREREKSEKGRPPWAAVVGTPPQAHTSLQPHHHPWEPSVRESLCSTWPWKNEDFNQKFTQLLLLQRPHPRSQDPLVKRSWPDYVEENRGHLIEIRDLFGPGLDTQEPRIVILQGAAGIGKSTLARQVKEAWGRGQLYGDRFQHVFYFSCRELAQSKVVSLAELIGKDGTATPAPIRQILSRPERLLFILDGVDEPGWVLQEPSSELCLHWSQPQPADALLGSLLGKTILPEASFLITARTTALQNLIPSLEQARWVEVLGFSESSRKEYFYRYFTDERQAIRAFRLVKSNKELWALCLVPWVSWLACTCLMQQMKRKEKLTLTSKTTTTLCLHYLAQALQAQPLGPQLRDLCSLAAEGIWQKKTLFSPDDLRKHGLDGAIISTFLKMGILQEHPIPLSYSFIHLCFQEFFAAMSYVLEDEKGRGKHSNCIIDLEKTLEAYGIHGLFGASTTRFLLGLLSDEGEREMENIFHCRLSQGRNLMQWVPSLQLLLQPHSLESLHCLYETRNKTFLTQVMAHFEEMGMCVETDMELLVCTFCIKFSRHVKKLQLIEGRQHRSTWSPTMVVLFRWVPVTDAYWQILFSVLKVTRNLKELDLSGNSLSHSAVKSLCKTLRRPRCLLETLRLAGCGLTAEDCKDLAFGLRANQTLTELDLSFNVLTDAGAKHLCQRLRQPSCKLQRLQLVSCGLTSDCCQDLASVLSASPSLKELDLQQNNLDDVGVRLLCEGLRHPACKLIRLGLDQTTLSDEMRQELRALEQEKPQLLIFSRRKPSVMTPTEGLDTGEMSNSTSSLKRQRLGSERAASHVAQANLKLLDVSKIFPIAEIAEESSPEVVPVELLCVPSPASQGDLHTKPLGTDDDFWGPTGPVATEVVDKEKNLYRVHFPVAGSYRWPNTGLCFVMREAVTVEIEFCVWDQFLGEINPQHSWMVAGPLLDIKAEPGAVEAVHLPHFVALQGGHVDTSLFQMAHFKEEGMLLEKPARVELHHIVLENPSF
Sequence of NACHT, LRR and PYD domains-containing protein 1 (Q9C000 1213-1473 limits assumed): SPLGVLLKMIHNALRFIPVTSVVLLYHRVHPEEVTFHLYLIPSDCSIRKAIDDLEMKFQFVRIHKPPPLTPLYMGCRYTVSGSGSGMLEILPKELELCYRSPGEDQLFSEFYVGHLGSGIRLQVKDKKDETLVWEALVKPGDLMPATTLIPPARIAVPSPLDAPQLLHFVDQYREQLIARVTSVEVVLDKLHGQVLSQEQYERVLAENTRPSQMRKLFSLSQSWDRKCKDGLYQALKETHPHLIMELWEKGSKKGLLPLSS
Sequence of Beta-galactosidase (Q8VNN2 whole entry): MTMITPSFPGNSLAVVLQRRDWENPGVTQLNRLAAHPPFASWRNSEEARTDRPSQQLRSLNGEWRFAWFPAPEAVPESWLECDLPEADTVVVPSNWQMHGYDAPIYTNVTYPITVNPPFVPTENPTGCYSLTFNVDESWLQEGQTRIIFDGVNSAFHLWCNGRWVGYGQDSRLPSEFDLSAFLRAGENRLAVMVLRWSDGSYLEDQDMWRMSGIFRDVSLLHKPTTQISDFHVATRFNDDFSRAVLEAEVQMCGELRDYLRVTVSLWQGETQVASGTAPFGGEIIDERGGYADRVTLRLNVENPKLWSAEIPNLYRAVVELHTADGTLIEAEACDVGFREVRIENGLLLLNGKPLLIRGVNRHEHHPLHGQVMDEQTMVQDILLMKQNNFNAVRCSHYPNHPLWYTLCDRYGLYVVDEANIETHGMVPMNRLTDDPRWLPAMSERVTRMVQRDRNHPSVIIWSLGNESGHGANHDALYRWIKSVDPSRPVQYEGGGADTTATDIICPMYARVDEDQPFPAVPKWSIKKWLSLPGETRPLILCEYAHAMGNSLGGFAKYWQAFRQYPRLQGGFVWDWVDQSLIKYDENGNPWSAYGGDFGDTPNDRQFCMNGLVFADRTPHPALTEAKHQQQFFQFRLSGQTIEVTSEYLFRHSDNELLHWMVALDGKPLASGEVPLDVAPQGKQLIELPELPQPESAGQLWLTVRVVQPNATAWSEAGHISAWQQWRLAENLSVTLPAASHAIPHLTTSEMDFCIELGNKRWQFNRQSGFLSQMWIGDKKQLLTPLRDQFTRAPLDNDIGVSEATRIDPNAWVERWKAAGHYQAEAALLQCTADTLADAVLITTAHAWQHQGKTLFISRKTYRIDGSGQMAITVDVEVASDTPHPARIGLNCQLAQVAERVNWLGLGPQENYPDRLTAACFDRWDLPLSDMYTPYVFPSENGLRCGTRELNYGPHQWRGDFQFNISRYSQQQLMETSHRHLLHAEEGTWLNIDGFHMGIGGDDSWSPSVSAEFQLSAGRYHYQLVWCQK
Sequence of G-protein coupled receptor 55 (Q9Y2T6 whole entry): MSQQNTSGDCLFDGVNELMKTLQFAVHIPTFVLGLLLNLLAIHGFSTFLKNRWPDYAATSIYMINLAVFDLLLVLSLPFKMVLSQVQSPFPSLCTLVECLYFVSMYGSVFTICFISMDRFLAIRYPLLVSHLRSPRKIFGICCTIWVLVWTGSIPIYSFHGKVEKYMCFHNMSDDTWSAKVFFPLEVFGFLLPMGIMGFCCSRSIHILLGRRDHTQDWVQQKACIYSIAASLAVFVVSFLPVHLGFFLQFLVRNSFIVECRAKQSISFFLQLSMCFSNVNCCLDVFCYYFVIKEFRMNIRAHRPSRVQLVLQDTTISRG
Sequence of Trypsin (P00761 whole entry): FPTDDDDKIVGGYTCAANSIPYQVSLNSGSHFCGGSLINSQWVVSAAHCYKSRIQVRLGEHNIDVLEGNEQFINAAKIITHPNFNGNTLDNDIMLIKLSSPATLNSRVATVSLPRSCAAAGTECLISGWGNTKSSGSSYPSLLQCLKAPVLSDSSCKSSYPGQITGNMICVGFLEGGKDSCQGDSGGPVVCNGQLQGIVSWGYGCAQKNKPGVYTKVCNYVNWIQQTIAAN
Sequence of CAAX prenyl protease 2 (Q03530 whole entry): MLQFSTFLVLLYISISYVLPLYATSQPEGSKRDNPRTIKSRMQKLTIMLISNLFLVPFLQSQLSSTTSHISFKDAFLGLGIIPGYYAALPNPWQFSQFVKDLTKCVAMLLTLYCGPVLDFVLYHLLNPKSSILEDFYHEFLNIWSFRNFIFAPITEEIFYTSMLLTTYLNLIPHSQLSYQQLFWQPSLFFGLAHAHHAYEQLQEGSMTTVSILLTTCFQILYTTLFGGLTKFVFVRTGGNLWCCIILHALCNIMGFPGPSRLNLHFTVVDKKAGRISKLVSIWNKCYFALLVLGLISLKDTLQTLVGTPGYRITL

Structure (SMILES): CCN(C(=O)COC(=O)c1cccnc1Nc1cccc(C(F)(F)F)c1)C1CCS(=O)(=O)C1 (stereo unspecified)
- IC50 [1]: > 100 µM (inactive)
- IC50 [2]: > 100 µM (inactive)

Structure (SMILES): CCOc1ccccc1NC(=O)C1=C(C)NC(=S)NC1c1cccs1 (stereo unspecified)
- IC50 [3]: > 100 µM (inactive)
- IC50 [4]: > 100 µM (not active)

Structure (SMILES): O=C(NC12CC3CC(CC(C3)C1)C2)N1CCN(c2ncccn2)CC1
- AC50 [5]: 210 µM (active)
- AC50 [6]: 81.5 µM (active)

Structure (SMILES): COc1ccc2c(C)cc(SCC(=O)Nc3ccc(Cl)cn3)nc2c1
- IC50 [3]: > 100 µM (inactive)
- IC50 [4]: > 100 µM (not active)

Structure (SMILES): CCOC(=O)c1cc(C#N)c(Oc2ccc(F)cc2)nc1-c1ccccc1
- IC50 [7]: 3.03 µM (active)

Structure (SMILES): COc1ccc(C2CC(c3ccccc3)=NN2C(=O)c2ccc(Cl)c([N+](=O)[O-])c2)cc1 (stereo unspecified)
- EC50 [8]: 32.6 µM (active)
- AC50 [9]: 77.7 µM (active)
- AC50 [10]: 26.1 µM (active)

Structure (SMILES): Cc1cccc(-c2nc3c(c(SCC(=O)c4ccc(O)c(O)c4)n2)CCCC3)c1
- IC50 [11]: > 100 µM (inactive)
- IC50 [12]: 78.5 µM (active)

Structure (SMILES): COc1ccc(-n2c(SCC(=O)c3ccc(O)c(O)c3)nnc2-c2ccc(C)cc2)cc1
- IC50 [11]: 5.84 µM (active)
- IC50 [12]: > 100 µM (inactive)

Structure (SMILES): CC1=C(C(=O)O)N2C(=O)C(NC(=O)CCCC(=O)O)C2SC1 (stereo unspecified)
- IC50 [13]: > 56.8 µM (not active)
- IC50 [14]: > 50 µM (inactive)

Structure (SMILES): Cc1cc(C)c(OCC(=O)Nc2nc(-c3ccccn3)cs2)c(C)c1
- EC50 [15]: 2.75 µM (active)
- EC50 [16]: 2.47 µM (active)
- EC50 [8]: 8.87 µM (active)
- EC50 [17]: 5.71 µM (active)
- IC50 [18]: > 66.6 µM (inactive)
- IC50 [19]: 10 µM (active)

Structure (SMILES): COC(=O)C1CC23C=CCN4CCC5(c6ccccc6NC15C2C)C43 (stereo unspecified)
- EC50 [20]: 1.07 µM (active)
- EC50 [21]: 1.07 µM (inconclusive)
- EC50 [22]: 4.2 µM (active)
- EC50 [23]: 7.37 µM (inconclusive)
- EC50 [24]: 1.13 µM (inconclusive)
- EC50 [25]: 1.13 µM (active)
- EC50 [26]: 0.612 µM (active)
- EC50 [27]: 2.28 µM (active)
- EC50 [28]: 0.134 µM (active)
- EC50 [29]: 7.77 µM (active)
- EC50 [30]: 7.37 µM (active)
- EC50 [31]: 0.574 µM (inconclusive)
- EC50 [32]: 0.495 µM (active)
- EC50 [33]: < 0.104 µM (active)

Structure (SMILES): COC(=O)c1ccccc1NC(=O)C1CCN(C(=O)c2cc(OC)cc(OC)c2)CC1
- EC50 [34]: 0.641 µM (active)

Structure (SMILES): CC1=NOC(=O)/C1=C\c1ccc(-c2cccc(Cl)c2)o1
- IC50 [7]: 8.52 µM (active)
- EC50 [35]: 14.5 µM (active)
- EC50 [36]: 11.8 µM (active)
- IC50 [18]: > 66.6 µM (inactive)
- AC50 [37]: 5.36 µM (active)

Structure (SMILES): CC(=O)c1ccc(NC(=O)Nc2ccc(Cl)cc2)cc1
- IC50 [1]: 2.98 µM (active)
- IC50 [2]: 35.9 µM (active)

Structure (SMILES): CC(=O)O[C@@]12CO[C@@H]1C[C@H](O)[C@@]1(C)C(=O)[C@H](O)C3=C(C)[C@@H](OC(=O)[C@H](O)[C@@H](NC(=O)c4ccccc4)c4ccccc4)C[C@](O)([C@@H](OC(=O)c4ccccc4)[C@H]21)C3(C)C
- EC50 [20]: 0.692 µM (active)
- EC50 [21]: 73.1 µM (inconclusive)
- EC50 [24]: 2.02 µM (inconclusive)
- EC50 [25]: 2.4 µM (active)
- EC50 [30]: 2.3 µM (active)
